Experimental data taken from patent US11376254B2, “Positive allosteric modulators of the muscarinic acetylcholine receptor M4” (Vanderbilt University, priority 2017, dated 2022).

Legend:
[1] = In vitro DMPK: rat fraction unbound in plasma; assay type: in vitro ADME; conditions: read-out: Rat Fu (plasma)
Description: (§1) Compound 1 was tested in several in vitro assays to investigate both metabolism and pharmacokinetics. These assays were performed according to known methods as generally described in the following references: Conde-Ceide et al. ACS Med. Chem. Lett. 2015, 6, 716-720; Morris et al. J. Med. Chem. 2014, 57, 10192-10197; and Bubser et al. ACS Chem. Neurosci. 2014, 5, 920-942.

[2] = In vitro DMPK: rat fraction unbound in brain; assay type: in vitro ADME; conditions: read-out: Rat Fu (brain)
Description: as §1

[3] = In vitro DMPK: rat predicted hepatic clearance; assay type: in vitro ADME
Description: as §1

[4] = In vitro DMPK: human predicted hepatic clearance; assay type: in vitro ADME
Description: as §1

[5] = In vitro DMPK: human fraction unbound in plasma; assay type: in vitro ADME; conditions: read-out: Human Fu (plasma)
Description: as §1

[6] = In vivo DMPK in rat (plasma clearance, brain:plasma distribution); conditions: read-out: Rat CLp
Human M4 = target: T1, Human M4 (Homo sapiens, UniProt P08173); assay: mAChR M4 cell-based functional assay (calcium flux, potentiation of ACh EC20 response); design: Emax: dose or concentration left out as unconfirmed
T1 sequence (P08173 1-479): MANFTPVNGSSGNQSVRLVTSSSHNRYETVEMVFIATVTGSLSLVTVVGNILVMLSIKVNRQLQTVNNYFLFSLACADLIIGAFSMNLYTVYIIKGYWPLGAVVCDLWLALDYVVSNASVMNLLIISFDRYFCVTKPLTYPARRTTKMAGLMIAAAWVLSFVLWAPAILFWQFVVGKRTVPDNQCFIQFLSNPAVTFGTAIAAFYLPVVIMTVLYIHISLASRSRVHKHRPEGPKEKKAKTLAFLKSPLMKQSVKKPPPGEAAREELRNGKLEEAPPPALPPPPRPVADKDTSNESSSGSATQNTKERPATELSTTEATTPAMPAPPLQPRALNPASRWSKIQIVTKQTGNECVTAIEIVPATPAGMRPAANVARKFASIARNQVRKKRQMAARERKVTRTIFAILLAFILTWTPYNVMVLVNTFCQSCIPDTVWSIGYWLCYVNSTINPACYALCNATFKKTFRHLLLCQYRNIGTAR

[7] = human, in vivo; cited from earlier work
[8] = without causing catalepsy; cited from earlier work
[9] = Alzheimer's disease patients; delusions, suspiciousness, vocal outbursts, hallucinations; cited from earlier work

Row | Structure (SMILES) | Emax (Human M4) | EC50 (Human M4) | further results
1 | Cc1c(C(F)F)nnc2sc3c(NCc4ccc(C(C)(C)O)cc4)ncnc3c12 [Compound 1, 2-(4-(((3-(Difluoromethyl)-4-methylpyrimido[4′,5′:4,5]thieno[2,3-c]pyridazin-8-yl)amino)methyl)phenyl)propan-2-ol] | 98.7% |  | fraction unbound [1]: 0.012; fraction unbound [2]: 0.006; Rat Predicted CLhep (mL/min/kg) Method A [3]: 19.1 mL/min/kg; Human Predicted CLhep (mL/min/kg) Method A ([4]; Method A (first line)): 6.69 mL/min/kg; Human Predicted CLhep (mL/min/kg) Method A ([4]; second line also printed as Method A): 0.34 mL/min/kg; fraction unbound [5]: 0.01; clearance [6]: 2.67 mL/min/kg
2 | COc1ccc(CNc2ncnc3c2sc2nnc(C(F)F)c(C)c23)cc1F [Compound 2, 3-(difluoromethyl)-N-(3-fluoro-4-methoxybenzyl)-4-methylpyrimido[4′,5′:4,5]thieno[2,3-c]pyridazin-8-amine] | 79.8% | 581 nM | 
3 | Cc1c(C(F)F)nnc2sc3c(N4CCCC4)ncnc3c12 [Compound 3, 3-(difluoromethyl)-4-methyl-8-(pyrrolidin-1-yl)pyrimido[4′,5′:4,5]thieno[2,3-c]pyridazine] | 83.5% | 238 nM | 
4 | Cc1c(C(F)F)nnc2sc3c(N4CC5(COC5)C4)ncnc3c12 [Compound 4, 6-(3-(difluoromethyl)-4-methylpyrimido[4′,5′:4,5]thieno[2,3-c]pyridazin-8-yl)-2-oxa-6-azaspiro[3.3]heptane] | 82.7% | 84.1 nM | 
5 | Cc1c(C(F)F)nnc2sc3c(N4CC(CO)(CO)C4)ncnc3c12 [Compound 5, (1-(3-(difluoromethyl)-4-methylpyrimido[4′,5′:4,5]thieno[2,3-c]pyridazin-8-yl)azetidine-3,3-diyl)dimethanol] | 81.9% | 1060 nM | 
6 | Cc1c(C(F)F)nnc2sc3c(N4CCOCC4)ncnc3c12 [Compound 6, 4-(3-(difluoromethyl)-4-methylpyrimido[4′,5′:4,5]thieno[2,3-c]pyridazin-8-yl)morpholine] | 72.2% | 572 nM | 
7 | Cc1c(C(F)F)nnc2sc3c(NC4CCCC4)ncnc3c12 [Compound 7, N-cyclopentyl-3-(difluoromethyl)-4-methylpyrimido[4′,5′:4,5]thieno[2,3-c]pyridazin-8-amine] | 95.4% | 271 nM | 
8 | [2H]C([2H])(Nc1ncnc2c1sc1nnc(C(F)F)c(C)c12)c1ccc(C(C)(C)O)cc1 [Compound 8, 2-(4-(((3-(difluoromethyl)-4-methylpyrimido[4′,5′:4,5]thieno[2,3-c]pyridazin-8-yl)amino)methyl-d2)phenyl)propan-2-ol] | 95.8% | 528 nM | 
9 | Cc1c(C(F)F)nnc2sc3c(NCc4ccc(C5(O)CCC5)cc4)ncnc3c12 [Compound 9, 1-(4-(((3-(difluoromethyl)-4-methylpyrimido[4′,5′:4,5]thieno[2,3-c]pyridazin-8-yl)amino)methyl)phenyl)cyclobutan-1-ol] | 95.5% | 809 nM | 
10 | Cc1c(C(F)F)nnc2sc3c(NCc4ccc(C(C)(O)C5CC5)cc4)ncnc3c12 (stereo not shown) [Compound 10, 1-cyclopropyl-1-(4-(((3-(difluoromethyl)-4-methylpyrimido[4′,5′:4,5]thieno[2,3-c]pyridazin-8-yl)amino)methyl)phenyl)ethan-1-ol] | 95.5% | 860 nM | 
11 | Cc1ccccc1OC1CCN(c2ncnc3c2sc2nnc(C(F)F)c(C)c23)C1 (stereo not shown) [Compound 11, 3-(difluoromethyl)-4-methyl-8-(3-(o-tolyloxy)pyrrolidin-1-yl)pyrimido[4′,5′:4,5]thieno[2,3-c]pyridazine] | 68.7% | > 10000 nM | 
12 | Nc1c2c(nc3ccccc13)CCCC2 [tacrine] |  |  | patients with elevated liver transaminases (hepatotoxicity) [7]: about 30%
13 | CCCCCCOc1nsnc1C1=CCCN(C)C1 [xanomeline] |  |  | activity in animal models with profiles similar to known antipsychotic drugs [8]: active in animal models; effect on psychotic behavioral symptoms [9]: reduce psychotic behavioral symptoms
